{"source": "patent US20220389061A1", "about": "“IMMUNOMODULATORS” (priority 2019, published 2022)", "note": "Starred links: 1 amine or outer side, 2 acyl side, 3 side chain; linkers in the order of their positions; H or OH if unused. Positions of bridges follow the written chain, without caps; N, C: chain ends. Non-standard residues stand in square brackets, D forms with d. Residues, ends and D or L forms follow the SMILES beside them. Groups on a side chain read outwards from the residue. *: point of attachment. Trp(1-CH2CO2Me) = COC(=O)Cn1cc(C[C@H](N)C(=O)O)c2ccccc21; Trp(1-CH2COOH) = N[C@@H](Cc1cn(CC(=O)O)c2ccccc12)C(=O)O; X66 = O=C([C@H](CCN/C(=N/c1ccccc1)c1ccccc1)N[*:1])[*:2]; X57 = O=C([C@H](CN/C(=N/c1ccccc1)c1ccccc1)N[*:1])[*:2]; NH(benzothiophen-5-yl) = c1cc2cc(N*)ccc2s1; X18 = O=[N+]([O-])c1ccc(NC(=S)*)c(Cl)c1; Benzofuran(2-CO) = O=C(c1cc2ccccc2o1)*; X31 = S=C(Nc1cccc2c(Cl)c[nH]c12)*; Hyp = O=C(O)[C@@H]1C[C@@H](O)CN1; X56 = COc1cc([N+](=O)[O-])ccc1N*; X80 = S=C(Nc1ccc(-n2cccn2)cc1)*; NMeNle = CCCC[C@H](NC)C(=O)O; X7 = S=C(Nc1ccc2cc[nH]c2c1)*; X48 = O=C(c1ccc2ccoc2c1)*; NMeA = CN[C@@H](C)C(=O)O; Dab = NCC[C@H](N)C(=O)O; X76 = Fc1cc(N*)cc(F)c1F; Dap = NC[C@H](N)C(=O)O; X46 = COc1ccc(Cl)cc1N*; CO = O=C([*:1])[*:2]; Bz = O=C(c1ccccc1)*"}
{"molecular_target": "T1, PD-1/PD-L1 (Homo sapiens, UniProt Q9NZQ7)", "T1 construct": "TVMV protease site linker (C); made in house; host or cells: HEK293T cells", "T1 sequence (Q9NZQ7 18-239)": "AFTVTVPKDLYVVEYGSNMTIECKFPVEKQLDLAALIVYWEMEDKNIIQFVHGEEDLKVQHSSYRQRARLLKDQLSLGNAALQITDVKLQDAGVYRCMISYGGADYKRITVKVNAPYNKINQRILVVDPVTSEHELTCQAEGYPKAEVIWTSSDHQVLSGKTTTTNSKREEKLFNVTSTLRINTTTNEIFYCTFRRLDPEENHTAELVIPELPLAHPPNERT", "test": "PD-1/PD-L1 Homogenous Time-Resolved Fluorescence (HTRF) binding assay", "details": "not given", "how_it_was_run": "(§1)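 HTRF read-out using europium cryptate anti-Ig (1 nM) and APC anti-His (20 nM) on extracellular-domain fusion proteins in dPBS/0.1% BSA/0.05% Tween-20. Inhibitor first incubated 15 min with 10 nM PD-L1-His, followed by 20 nM PD-1-Ig for another 15 min.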", "units": {"IC50": "nM"}}
{"smiles": "CCCC[C@H]1C(=O)N(C)[C@@H](CCCC)C(=O)N[C@@H](CC(C)C)C(=O)N[C@H](C(=O)NCC(N)=O)CSCC(=O)N[C@@H](Cc2ccc(O)cc2)C(=O)N(C)[C@@H](C)C(=O)N[C@@H](CC(N)=O)C(=O)N2CCC[C@H]2C(=O)N[C@@H](CNC(=S)Nc2ccc([N+](=O)[O-])cc2Cl)C(=O)N[C@@H](CC(C)C)C(=O)N2C[C@H](O)C[C@H]2C(=O)N[C@@H](Cc2c[nH]c3ccccc23)C(=O)N[C@@H](CCNC(=S)Nc2ccc([N+](=O)[O-])cc2Cl)C(=O)N[C@@H](Cc2cn(CC(=O)O)c3ccccc23)C(=O)N1C", "note": "[Example 1103] ({CH2CO}-Y[NMeA]NP[Dap](X18)L[Hyp]W[Dab](X18)[Trp(1-CH2COOH)][NMeNle][NMeNle]LCG-NH2; thioether N-14)", "IC50": 6.5}
{"smiles": "CCCC[C@H]1C(=O)N(C)[C@@H](CCCC)C(=O)N[C@@H](CC(C)C)C(=O)N[C@H](C(=O)NCC(N)=O)CSCC(=O)N[C@@H](Cc2ccc(O)cc2)C(=O)N(C)[C@@H](C)C(=O)N[C@@H](CC(N)=O)C(=O)N2CCC[C@H]2C(=O)N[C@@H](CNC(=O)c2ccccc2)C(=O)N[C@@H](CC(C)C)C(=O)N2C[C@H](O)C[C@H]2C(=O)N[C@@H](Cc2c[nH]c3ccccc23)C(=O)N[C@@H](CCNC(=O)c2ccccc2)C(=O)N[C@@H](Cc2cn(CC(=O)OC)c3ccccc23)C(=O)N1C", "note": "[Example 1006] ({CH2CO}-Y[NMeA]NP[Dap](Bz)L[Hyp]W[Dab](Bz)[Trp(1-CH2CO2Me)][NMeNle][NMeNle]LCG-NH2; thioether N-14)", "IC50": 0.2}
{"molecular_target": "T1, PD-1/PD-L1", "test": "PD-1/PD-L1 Homogenous Time-Resolved Fluorescence (HTRF) binding assay", "details": "PD-L1-His 10 nM pre-incubated with inhibitor, PD-1-Ig 20 nM; read-out: HTRF IC50", "how_it_was_run": "as §1", "units": {"IC50": "nM"}}
{"smiles": "CCCC[C@H]1C(=O)N(C)[C@@H](CCCC)C(=O)N[C@@H](CC(C)C)C(=O)N[C@H](C(=O)NCC(N)=O)CSCC(=O)N[C@@H](Cc2ccc(O)cc2)C(=O)N(C)[C@@H](C)C(=O)N[C@@H](CC(N)=O)C(=O)N2CCC[C@H]2C(=O)N[C@@H](CNC(=S)Nc2ccc(-n3cccn3)cc2)C(=O)N[C@@H](CC(C)C)C(=O)N2C[C@H](O)C[C@H]2C(=O)N[C@@H](Cc2c[nH]c3ccccc23)C(=O)N[C@@H](CCNC(=S)Nc2ccc(-n3cccn3)cc2)C(=O)N[C@@H](Cc2cn(CC(=O)O)c3ccccc23)C(=O)N1C", "note": "[Example 1094] ({CH2CO}-Y[NMeA]NP[Dap](X80)L[Hyp]W[Dab](X80)[Trp(1-CH2COOH)][NMeNle][NMeNle]LCG-NH2; thioether N-14)", "IC50": 2.4}
{"smiles": "CCCC[C@H]1C(=O)N(C)[C@@H](CCCC)C(=O)N[C@@H](CC(C)C)C(=O)N[C@H](C(=O)NCC(N)=O)CSCC(=O)N[C@@H](Cc2ccc(O)cc2)C(=O)N(C)[C@@H](C)C(=O)N[C@@H](CC(N)=O)C(=O)N2CCC[C@H]2C(=O)N[C@@H](CNC(=O)Nc2cc(F)c(F)c(F)c2)C(=O)N[C@@H](CC(C)C)C(=O)N2C[C@H](O)C[C@H]2C(=O)N[C@@H](Cc2c[nH]c3ccccc23)C(=O)N[C@@H](CCNC(=O)Nc2cc(F)c(F)c(F)c2)C(=O)N[C@@H](Cc2cn(CC(=O)O)c3ccccc23)C(=O)N1C", "note": "[Example 1012] ({CH2CO}-Y[NMeA]NP[Dap]([CO-X76])L[Hyp]W[Dab]([CO-X76])[Trp(1-CH2COOH)][NMeNle][NMeNle]LCG-NH2; thioether N-14)", "IC50": 4.8}
{"smiles": "CCCC[C@H]1C(=O)N(C)[C@@H](CCCC)C(=O)N[C@@H](CC(C)C)C(=O)N[C@H](C(=O)NCC(N)=O)CSCC(=O)N[C@@H](Cc2ccc(O)cc2)C(=O)N(C)[C@@H](C)C(=O)N[C@@H](CC(N)=O)C(=O)N2CCC[C@H]2C(=O)N[C@@H](CNC(=O)Nc2ccc([N+](=O)[O-])cc2OC)C(=O)N[C@@H](CC(C)C)C(=O)N2C[C@H](O)C[C@H]2C(=O)N[C@@H](Cc2c[nH]c3ccccc23)C(=O)N[C@@H](CCN)C(=O)N[C@@H](Cc2cn(CC(=O)O)c3ccccc23)C(=O)N1C", "note": "[Example 1108] ({CH2CO}-Y[NMeA]NP[Dap]([CO-X56])L[Hyp]W[Dab][Trp(1-CH2COOH)][NMeNle][NMeNle]LCG-NH2; thioether N-14)", "IC50": 2.4}
{"smiles": "CCCC[C@H]1C(=O)N(C)[C@@H](CCCC)C(=O)N[C@@H](CC(C)C)C(=O)N[C@H](C(=O)NCC(N)=O)CSCC(=O)N[C@@H](Cc2ccc(O)cc2)C(=O)N(C)[C@@H](C)C(=O)N[C@@H](CC(N)=O)C(=O)N2CCC[C@H]2C(=O)N[C@@H](CNC(=O)c2ccc3ccoc3c2)C(=O)N[C@@H](CC(C)C)C(=O)N2C[C@H](O)C[C@H]2C(=O)N[C@@H](Cc2c[nH]c3ccccc23)C(=O)N[C@@H](CCNC(=O)c2ccc3ccoc3c2)C(=O)N[C@@H](Cc2cn(CC(=O)OC)c3ccccc23)C(=O)N1C", "note": "[Example 3011] ({CH2CO}-Y[NMeA]NP[Dap](X48)L[Hyp]W[Dab](X48)[Trp(1-CH2CO2Me)][NMeNle][NMeNle]LCG-NH2; thioether N-14)", "IC50": 8.2}
{"smiles": "CCCC[C@H]1C(=O)N(C)[C@@H](CCCC)C(=O)N[C@@H](CC(C)C)C(=O)N[C@H](C(=O)NCC(N)=O)CSCC(=O)N[C@@H](Cc2ccc(O)cc2)C(=O)N(C)[C@@H](C)C(=O)N[C@@H](CC(N)=O)C(=O)N2CCC[C@H]2C(=O)N[C@@H](CNC(=O)c2cc3ccccc3o2)C(=O)N[C@@H](CC(C)C)C(=O)N2C[C@H](O)C[C@H]2C(=O)N[C@@H](Cc2c[nH]c3ccccc23)C(=O)N[C@@H](CCNC(=O)c2cc3ccccc3o2)C(=O)N[C@@H](Cc2cn(CC(=O)OC)c3ccccc23)C(=O)N1C", "note": "[Example 3012] ({CH2CO}-Y[NMeA]NP[Dap](Benzofuran(2-CO))L[Hyp]W[Dab](Benzofuran(2-CO))[Trp(1-CH2CO2Me)][NMeNle][NMeNle]LCG-NH2; thioether N-14)", "IC50": 5.3}
{"smiles": "CCCC[C@H]1C(=O)N(C)[C@@H](CCCC)C(=O)N[C@@H](CC(C)C)C(=O)N[C@H](C(=O)NCC(N)=O)CSCC(=O)N[C@@H](Cc2ccc(O)cc2)C(=O)N(C)[C@@H](C)C(=O)N[C@@H](CC(N)=O)C(=O)N2CCC[C@H]2C(=O)N[C@@H](CNC(=S)Nc2ccc(-n3cccn3)cc2)C(=O)N[C@@H](CC(C)C)C(=O)N2C[C@H](O)C[C@H]2C(=O)N[C@@H](Cc2c[nH]c3ccccc23)C(=O)N[C@@H](CCN)C(=O)N[C@@H](Cc2cn(CC(=O)O)c3ccccc23)C(=O)N1C", "note": "[Example 1060] ({CH2CO}-Y[NMeA]NP[Dap](X80)L[Hyp]W[Dab][Trp(1-CH2COOH)][NMeNle][NMeNle]LCG-NH2; thioether N-14)", "IC50": 1.1}
{"smiles": "CCCC[C@H]1C(=O)N(C)[C@@H](CCCC)C(=O)N[C@@H](CC(C)C)C(=O)N[C@H](C(=O)NCC(N)=O)CSCC(=O)N[C@@H](Cc2ccc(O)cc2)C(=O)N(C)[C@@H](C)C(=O)N[C@@H](CC(N)=O)C(=O)N2CCC[C@H]2C(=O)N[C@@H](CN)C(=O)N[C@@H](CC(C)C)C(=O)N2C[C@H](O)C[C@H]2C(=O)N[C@@H](Cc2c[nH]c3ccccc23)C(=O)N[C@@H](CCNC(=S)Nc2cccc3c(Cl)c[nH]c23)C(=O)N[C@@H](Cc2cn(CC(=O)O)c3ccccc23)C(=O)N1C", "note": "[Example 3031] ({CH2CO}-Y[NMeA]NP[Dap]L[Hyp]W[Dab](X31)[Trp(1-CH2COOH)][NMeNle][NMeNle]LCG-NH2; thioether N-14)", "IC50": 3.1}
{"smiles": "CCCC[C@H]1C(=O)N(C)[C@@H](CCCC)C(=O)N[C@@H](CC(C)C)C(=O)N[C@H](C(=O)NCC(N)=O)CSCC(=O)N[C@@H](Cc2ccc(O)cc2)C(=O)N(C)[C@@H](C)C(=O)N[C@@H](CC(N)=O)C(=O)N2CCC[C@H]2C(=O)N[C@@H](CNC(=S)Nc2ccc3cc[nH]c3c2)C(=O)N[C@@H](CC(C)C)C(=O)N2C[C@H](O)C[C@H]2C(=O)N[C@@H](Cc2c[nH]c3ccccc23)C(=O)N[C@@H](CCN)C(=O)N[C@@H](Cc2cn(CC(=O)O)c3ccccc23)C(=O)N1C", "note": "[Example 3049] ({CH2CO}-Y[NMeA]NP[Dap](X7)L[Hyp]W[Dab][Trp(1-CH2COOH)][NMeNle][NMeNle]LCG-NH2; thioether N-14)", "IC50": 4.1}
{"smiles": "CCCC[C@H]1C(=O)N(C)[C@@H](CCCC)C(=O)N[C@@H](CC(C)C)C(=O)N[C@H](C(=O)NCC(N)=O)CSCC(=O)N[C@@H](Cc2ccc(O)cc2)C(=O)N(C)[C@@H](C)C(=O)N[C@@H](CC(N)=O)C(=O)N2CCC[C@H]2C(=O)N[C@@H](CNC(=O)Nc2cc(Cl)ccc2OC)C(=O)N[C@@H](CC(C)C)C(=O)N2C[C@H](O)C[C@H]2C(=O)N[C@@H](Cc2c[nH]c3ccccc23)C(=O)N[C@@H](CCNC(=O)Nc2cc(Cl)ccc2OC)C(=O)N[C@@H](Cc2cn(CC(=O)O)c3ccccc23)C(=O)N1C", "note": "[Example 1123] ({CH2CO}-Y[NMeA]NP[Dap]([CO-X46])L[Hyp]W[Dab]([CO-X46])[Trp(1-CH2COOH)][NMeNle][NMeNle]LCG-NH2; thioether N-14)", "IC50": 4.4}
{"smiles": "CCCC[C@H]1C(=O)N(C)[C@@H](CCCC)C(=O)N[C@@H](CC(C)C)C(=O)N[C@H](C(=O)NCC(N)=O)CSCC(=O)N[C@@H](Cc2ccc(O)cc2)C(=O)N(C)[C@@H](C)C(=O)N[C@@H](CC(N)=O)C(=O)N2CCC[C@H]2C(=O)N[C@@H](CNC(=O)Nc2ccc3sccc3c2)C(=O)N[C@@H](CC(C)C)C(=O)N2C[C@H](O)C[C@H]2C(=O)N[C@@H](Cc2c[nH]c3ccccc23)C(=O)N[C@@H](CCNC(=O)Nc2ccc3sccc3c2)C(=O)N[C@@H](Cc2cn(CC(=O)O)c3ccccc23)C(=O)N1C", "note": "[Example 3003] ({CH2CO}-Y[NMeA]NP[Dap]([CO-NH(benzothiophen-5-yl)])L[Hyp]W[Dab]([CO-NH(benzothiophen-5-yl)])[Trp(1-CH2COOH)][NMeNle][NMeNle]LCG-NH2; thioether N-14)", "IC50": 2.3}
{"smiles": "CCCC[C@H]1C(=O)N(C)[C@@H](CCCC)C(=O)N[C@@H](CC(C)C)C(=O)N[C@H](C(=O)NCC(N)=O)CSCC(=O)N[C@@H](Cc2ccc(O)cc2)C(=O)N(C)[C@@H](C)C(=O)N[C@@H](CC(N)=O)C(=O)N2CCC[C@H]2C(=O)N[C@@H](CN/C(=N/c2ccccc2)c2ccccc2)C(=O)N[C@@H](CC(C)C)C(=O)N2C[C@H](O)C[C@H]2C(=O)N[C@@H](Cc2c[nH]c3ccccc23)C(=O)N[C@@H](CCN/C(=N/c2ccccc2)c2ccccc2)C(=O)N[C@@H](Cc2cn(CC(=O)O)c3ccccc23)C(=O)N1C", "note": "[Example 1017] ({CH2CO}-Y[NMeA]NP[X57]L[Hyp]W[X66][Trp(1-CH2COOH)][NMeNle][NMeNle]LCG-NH2; thioether N-14)", "IC50": 7.5}
